# Experimental data from patent US20220348569A1 (priority 2021, published 2022).
# Entries after “also recorded” stand apart in the source; their conditions may differ. Where two headings read alike, the source gives them in different places.
# Legend:
# SARS-CoV pseudovirus [1] = experiment: microbe, parasite or virus in culture; assay type: cell-based; settings: Severe acute respiratory syndrome coronavirus, 293T/ACE2
# in vivo = settings: female, rat; for AUC(0-t): Sprague Dawley
# MERS-CoV pseudovirus [2] = experiment: microbe, parasite or virus in culture; assay type: cell-based; settings: Middle East respiratory syndrome-related coronavirus, MRC5
# SARS-CoV-2 pseudovirus [3] = experiment: microbe, parasite or virus in culture; assay type: cell-based; settings: for IC50: Severe acute respiratory syndrome-related coronavirus, read-out: IC50s against SARS-CoV-2 pseudovirus over the cell lines
# [4] = target: SARS-CoV-2 spike (active trimer) His-tag (Severe acute respiratory syndrome coronavirus 2, UniProt P0DTC2); assay type: binding
# [5] = tested on: SARS-CoV-2 (US_WA-1/2020); assay type: cell-based
# SARS-CoV pseudovirus [6] = experiment: microbe, parasite or virus in culture; assay type: cell-based; settings: Severe acute respiratory syndrome coronavirus, A549-ACE2
# [7] = tested on: SARS-CoV-2 full Spike wild-type (Wuhan-Hu-1) mediated cell-to-cell fusion; experiment: cells; assay type: cell-based; settings: for inhibition at 0.25 µM: Severe acute respiratory syndrome coronavirus 2, Jurkat, at 250 nM, read-out: inhibitory activity of SARS-CoV-2 mediated cell-to-cell fusion
# SARS-CoV pseudovirus [8] = experiment: microbe, parasite or virus in culture; assay type: cell-based; settings: Severe acute respiratory syndrome coronavirus, HT-1080
# MERS-CoV pseudovirus [9] = experiment: microbe, parasite or virus in culture; assay type: cell-based; settings: Middle East respiratory syndrome-related coronavirus, Huh-7
# [10] = rat, in vivo
# in vitro [11] = settings: human
# SARS-CoV-2 pseudovirus [12] = experiment: microbe, parasite or virus in culture; assay type: cell-based; settings: Severe acute respiratory syndrome-related coronavirus, A549-ACE2
# MERS-CoV pseudovirus [13] = experiment: microbe, parasite or virus in culture; assay type: cell-based; settings: Middle East respiratory syndrome-related coronavirus, read-out: IC50 against MERS-CoV pseudovirus
# SARS-CoV pseudovirus [14] = assay type: cell-based
# in vitro [15] = settings: human; remark: listed apart in the source
# [16] = female, Sprague Dawley, iv, 5 mg/kg
smiles,measurement,setting,value
O=C(O)c1cccc(-c2ccc(/C=C3\SC(=S)N(CCc4ccccc4)C3=O)o2)c1 [Compound 2],IC50,SARS-CoV pseudovirus [1],13.8 to 17 nM
same,AUC(0-t),"in vivo; iv, 5 mg/kg",17100 ng·h/mL
same,AUC(0-t),"in vivo; po, 10 mg/kg",319 ng·h/mL
same,half-life,"in vivo; Sprague-Dawley, iv, 5 mg/kg",3.5 to 3.9 h
same,IC50,MERS-CoV pseudovirus [2],76.5 to 123 nM
same,antiviral activity against SARS-CoV-2 pseudovirus (in words),SARS-CoV-2 pseudovirus [3],low nanomolar activity; also recorded: best antiviral potency; also recorded: low nM IC50
same,IC50,SARS-CoV-2 pseudovirus [3],22.8 to 58 nM
same,ka,[4],872 M⁻¹ s⁻¹
same,IC100,[5],1.25 µM
same,IC50,SARS-CoV pseudovirus [6],98 to 157 nM
same,inhibition of SARS-CoV-2 mediated cell-to-cell fusion (in words),[7],potently inhibited the cell-to-cell fusion even at the lowest dose
same,inhibition at 0.25 µM,[7],62 to 79%
same,IC50,SARS-CoV pseudovirus [8],19.3 to 39 nM
same,IC50,MERS-CoV pseudovirus [9],95 to 158 nM
same,C0,[10]; [16],1710.87 ng/mL
same,CLobs,[10]; [16],0.00027 mg/kg/(ng/mL)/hr
same,MRT0-inf_obs,[10]; [16],5.09 h
same,Vss_obs,[10]; [16],0.0014 mg/kg/(ng/mL)
same,Vss_obs,"[10]; female, Sprague Dawley, po, 10 mg/kg",0 mg/kg/(ng/mL)
same,F %,"[10]; female, Sprague-Dawley",0.9%
same,MRT0-inf_obs,"[10]; female, Sprague-Dawley, po, 10 mg/kg",7.28 h
same,Vz/F_obs,"[10]; po, 10 mg/kg",0.1759 mg/kg/(ng/mL)
O=C(O)c1cc(-c2ccc(/C=C3\SC(=S)N(CCc4ccccc4)C3=O)o2)ccc1F [Compound 3],IC50,SARS-CoV pseudovirus [1],13.8 to 17 nM
same,IC50,MERS-CoV pseudovirus [2],76.5 to 123 nM
same,CC50,in vitro [11],45000 ± 5000 nM
same,antiviral activity against SARS-CoV-2 pseudovirus (in words),SARS-CoV-2 pseudovirus [3],somewhat reduced activity
same,"selectivity index (SI, ratio CC50/IC50) over the cell lines",SARS-CoV-2 pseudovirus [3],750->1563
same,IC50,SARS-CoV-2 pseudovirus [3],60.1 to 120 nM
same,IC100,[5],2.5 µM
same,IC50,SARS-CoV pseudovirus [6],98 to 157 nM
same,IC50,SARS-CoV pseudovirus [8],19.3 to 39 nM
same,IC50,MERS-CoV pseudovirus [9],95 to 158 nM
Cc1ccc(-c2ccc(/C=C3\SC(=S)N(CCc4ccccc4)C3=O)o2)cc1C(=O)O [Compound 4],IC50,MERS-CoV pseudovirus [2],76.5 to 123 nM
same,antiviral activity against SARS-CoV-2 pseudovirus (in words),SARS-CoV-2 pseudovirus [3],low nanomolar activity; also recorded: excellent antiviral activity
same,IC50,SARS-CoV-2 pseudovirus [3],26 to 73 nM
same,IC100,[5],2.5 µM
same,inhibition of SARS-CoV-2 mediated cell-to-cell fusion (in words),[7],potently inhibited the cell-to-cell fusion even at the lowest dose
same,inhibition at 0.25 µM,[7],62 to 79%
same,IC50,MERS-CoV pseudovirus [9],95 to 158 nM
Cc1c(C(=O)O)cccc1-c1ccc(/C=C2\SC(=S)N(CCc3ccccc3)C2=O)o1 [Compound 5],IC50,SARS-CoV-2 pseudovirus [12],> 2000 nM
same,IC50,MERS-CoV pseudovirus [13],> 2000 nM
same,IC100,[5],>10 µM
same,inhibition of SARS-CoV-2 mediated cell-to-cell fusion (in words),[7],only inhibited the SARS-CoV-2 mediated cell-to-cell fusion at the higher dose (4 μM)
same,activity against SARS-CoV pseudovirus (in words),SARS-CoV pseudovirus [14],poor activity
CCc1ccc(-c2ccc(/C=C3\SC(=S)N(CCc4ccccc4)C3=O)o2)cc1C(=O)O [Compound 6],CC50,in vitro [11],40000 ± 6000 nM
same,antiviral activity against SARS-CoV-2 pseudovirus (in words),SARS-CoV-2 pseudovirus [3],slightly lower antiviral activity
same,IC50,MERS-CoV pseudovirus [13],< 1000 nM
same,IC100,[5],>10 µM
O=C(O)c1cccc(-c2ccc(/C=C3\SC(=S)N(CCc4ccccc4)C3=O)o2)c1F [Compound 7],IC50,MERS-CoV pseudovirus [13],< 1000 nM
same,IC100,[5],5 µM
O=C(O)c1cc(-c2ccc(/C=C3\SC(=S)N(CCc4ccccc4)C3=O)o2)ccc1Br [Compound 8],antiviral activity against SARS-CoV-2 pseudovirus (in words),SARS-CoV-2 pseudovirus [3],excellent antiviral activity
same,IC50,MERS-CoV pseudovirus [13],< 1000 nM
same,IC100,[5],5 µM
Cc1c(C(=O)O)cncc1-c1ccc(/C=C2\SC(=S)N(CCc3ccccc3)C2=O)o1 [Compound 9],IC100,[5],2.5 µM
"O=C1C(=Cc2ccc(-c3ccc(Cl)cc3)o2)SC(=S)N1CCc1ccccc1 [Compound 10, 5-((5-(4-chlorophenyl)furan-2-yl)methylene)-3-phenethyl-2-thioxothiazolidin-4-one]",antiviral activity against SARS-CoV-2 pseudovirus (in words),SARS-CoV-2 pseudovirus [3],no antiviral potency at the highest dose tested
same,IC50,SARS-CoV-2 pseudovirus [3],> 2000 nM
NS(=O)(=O)c1ccc(-c2ccc(/C=C3\SC(=S)N(CCc4ccccc4)C3=O)o2)cc1 [Compound 11],CC50,in vitro [11],13300 ± 2000 nM
same,IC50,MERS-CoV pseudovirus [9],13.2 ± 3.7 nM
O=C1NC(=S)S/C1=C\c1ccc(-c2ccc(Cl)c(C(=O)O)c2)o1 [Compound 12],antiviral activity against SARS-CoV-2 pseudovirus (in words),SARS-CoV-2 pseudovirus [3],did not display any activity at the highest dose tested
CCN1C(=O)/C(=C/c2ccc(-c3cccc(C(=O)O)c3)o2)SC1=S [Compound 13],CC50,in vitro [11],74000 ± 3000 nM
same,CC50,in vitro [15],> 100000 nM
COCCN1C(=O)/C(=C/c2ccc(-c3ccc(Cl)c(C(=O)O)c3)o2)SC1=S [Compound 14],CC50,in vitro [11],81000 ± 1000 nM
same,CC50,in vitro [15],> 100000 nM
CN1C(=O)/C(=C/c2ccc(-c3cccc(C(=O)O)c3)o2)SC1=S [Compound 15],CC50,in vitro [11],53000 ± 8000 nM
same,CC50,in vitro [15],> 100000 nM
O=C1/C(=C/c2ccc(-c3ccccc3)o2)SC(=S)N1CCc1ccccc1 [Compound 16],CC50,in vitro [11],75000 ± 7000 nM
same,CC50,in vitro [15],40000 ± 2000 nM
